This passage reports viability, T/C and IC50 results from PubChem BioAssay AID2060360 (Molecular Pharmacology Branch, DTP, NCI, 2025).

“And” between values parts separate entries of the source, which are not always exact repeats. Equal entries are not always repeated.

In this assay the test system is 282377-053-R-J1-PDC tumor spheroids, viability. The assay is described as follows: Anticancer human tumor 282377-053-R-J1-PDC patient-derived colon adenocarcinoma cell line growth inhibition [TAK]. As to conditions: spheroids with HUVEC and MSC; for viability, T/C: stronger effect = lower value. An outline of the steps:
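Tumor cells were grown as spheroids with HUVEC and hMSC (60:25:15) and treated with targeted agents combined with TAK-243 or ipatasertib. Drugs were tested in half-log steps down from near the clinical Cmax, or from 10 microM where Cmax was unknown.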
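Note: spheroids exposed to drugs for seven days before readout.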

On to `CC(C)CC(NC(=O)CNC(=O)c1cc(Cl)ccc1Cl)B1OC(=O)CC(CC(=O)O)(C(=O)O)O1` (configuration not stated), for which the viability, T/C – broadly, the result in the treated group divided by that in the control group, in per cent – runs as follows: (compound 0.000316 µM) 97.6% and 92.8%; (compound 0.001 µM) 95.9% and 104%; (compound 0.00316 µM) 101% and 95.3%; (compound 0.01 µM) 97.9% and 101%; (compound 0.0316 µM) 93.3% and 95%; (compound 0.1 µM) 5.66% and 8.2%. Where the note is “curve of compound”, the IC50 (usually the concentration needed to halve the response being measured) was 55.8 nM and 57.5 nM.
